Assays:
CD22 [1] = experiment: Flow cytometry of surface protein expression, REH cell line stimulated with bryostatin-1; format: cell-based, human; conditions: REH (ALL) cells; bryostatin-1 0.001-1 nM, 24 or 72 hours; FIG. 1A
Text: (§1) Bryostatin-1 has been examined in numerous tumor cell lines representing various hematological tumor types. Surface protein target expression was examined by flow cytometry with human cell lines stimulated with different concentrations of bryostatin-1. Human cell lines representative of different hematological disease indications of leukemia/lymphoma (Toledo, REH, DB), multiple myeloma (NCI-H929, U266B1, RPMI8226), and acute myeloid leukemia (Kasumi-1, AML-193, THP1) were used as target cell lines. Each cell line was treated with bryostatin-1 at 0.001, 0.01, 0.1, or 1 nM for either 24 hours or 72 hours in duplicate prior to measuring the surface molecule expression, quantitatively, of the following protein antigens by flow cytometry: CD19, CD20, CD22, CD33, CD37, CD38, CD123, CD269 (BCMA), and isotype control. Bryostatin-1 caused an upregulation of some antigens and not others.

CD269 (BCMA) = experiment: Flow cytometry of surface protein expression, NCI-H929 cell line stimulated with bryostatin-1; format: cell-based, human; conditions: NCI-H929 (MM) cells; bryostatin-1 0.001-1 nM, 24 or 72 hours; FIG. 1C
Text: as §1

[2] = test system: tumor cells derived from relapsed, low-expressing TAA patients; experiment: PDX model with CD22-directed CAR-T and bryostatin-1; format: in vivo; conditions: bryostatin-1 administered on Day 45 after CD22-directed CAR-T cells on Day 42
CD19 = experiment: Surface antigen expression on primary B cells from healthy donors, MM or CLL patients; format: cell-based, human; conditions: 72 h exposure
Text: (§2) The ability of bryostatin-1 at multiple concentrations to modulate the surface expression of multiple antigens (CD5, CD19, CD20, CD22, CD37, CD200/OX2 and CD269/BCMA) at two time points on primary B cells from healthy donors (2 donors) or patients with multiple myeloma (2 patients, MM) or chronic lymphocytic leukemia (4 patients, CLL) was investigated.

CD22 [3] = experiment: as above; format: cell-based, human
Text: as §2

CD5 = experiment: as above; format: cell-based, human; conditions: 24 h exposure
Text: as §2

CD123 = experiment: Flow cytometry of surface protein expression, AML193 cell line stimulated with bryostatin-1; format: cell-based, human; conditions: AML193 (AML) cells; bryostatin-1 0.001-1 nM, 24 or 72 hours; FIG. 1B
Text: as §1

[4] = primary B cells of CLL patients
[5] = primary B cells of healthy donors

CCC/C=C/C=C/C(=O)O[C@H]1/C(=C/C(=O)OC)C[C@H]2C[C@H]([C@@H](C)O)OC(=O)C[C@H](O)C[C@@H]3C[C@H](OC(C)=O)C(C)(C)[C@](O)(C[C@@H]4C/C(=C/C(=O)OC)C[C@H](/C=C/C(C)(C)[C@]1(O)O2)O4)O3 [bryostatin-1, Bryostatin-1]
CD22 cell surface expression (CD22 [1]): upregulated | CD269 (BCMA) cell surface expression (CD269 (BCMA)): upregulated | Tumor response [2]: induced the tumors to respond | CD19 expression (CD19; [4]): increases | CD19 expression (CD19; primary B cells of MM patients): not | CD19 expression (CD19; [5]): increases | CD22 expression (CD22 [3]; [4]): upregulated | CD22 expression (CD22 [3]; primary B cells of MM patients): not | CD22 expression (CD22 [3]; [5]): upregulated | CD5 expression (CD5; [4]): not | CD5 expression (CD5; primary B cells of MM patients): increases | CD5 expression (CD5; [5]): not | CD123 cell surface expression (CD123): upregulated

Reference: patent US20240058302A1, “METHOD OF INDUCTION OF TUMOR ASSOCIATED ANTIGENS WITH BRYOSTATIN” (BryoLogyx Inc., priority 2019, published 2024)
